Experimental data taken from article PMC4464910 (Pharmacological research : the official journal of the …, 2015).

Assays:
2-AG hydrolysis = 2-AG hydrolysis colorimetric assay in rat brain microsomes; assay type: biochemical; conditions: read-out: 2-AG hydrolysis IC50, n=3
[1] = tested on: carrageenan-induced edema; assay: carrageenan-induced paw edema; assay type: in vivo, CD1 mice; conditions: mice, 10 mg kg^−1 oral, P<.001
mechanical hyperalgesia = assay: carrageenan-induced mechanical hyperalgesia; assay type: in vivo, CD1 mice; conditions: mice, oral, time point 4 hours
heat hyperalgesia = assay: carrageenan-induced heat hyperalgesia; assay type: in vivo, CD1 mice; conditions: mice, oral, time point 4 hours
mechanical allodynia = assay type: in vivo, Sprague-Dawley rats; conditions: for ED50 on mechanical allodynia: i.p., time point 1 hour

Structure (SMILES)	IC50 (2-AG hydrolysis) [µM]	suppression of edema 24 hours after application [1]	ED50 on mechanical hyperalgesia (mechanical hyperalgesia) [mg/kg]	ED50 on heat hyperalgesia (heat hyperalgesia) [mg/kg]	ED50 on mechanical allodynia (mechanical allodynia; diabetic rats) [mg/kg]	effect on allodynia at 0.3 mg kg^−1 (mechanical allodynia; neuropathic rats, 0.3 mg kg^−1 dose)	effect on allodynia compared with TPPU and URB937 at the same dose (mechanical allodynia; diabetic rats, 3 mg kg^−1 i.p.)
CCC(=O)N1CCC(NC(=O)Nc2ccc(OC(F)(F)F)cc2)CC1 [TPPU]	> 100	still statistically detectable	1	0.5	0.1	–	–
NC(=O)c1cccc(-c2cc(OC(=O)NC3CCCCC3)ccc2O)c1 [URB937]	> 100	–	–	0.2	0.3	attenuated allodynia	–
O=C(Nc1cccc(OC(F)(F)F)c1)N[C@H]1CC[C@H](Oc2ccc(C(=O)O)cc2)CC1 [t-TUCB, trans-4-[4-(3-trifluoromethoxyphenyl-l-ureido)-cyclohexyloxy]-benzoic acid]	–	–	–	–	–	–	similar
